Experiments:
Test in all cases: [3H]adenosine uptake assay, competition with cold uridine
Type in all cases: cell-based
[1] = molecular target: T1, PfENT1 A134C (Plasmodium falciparum, UniProt Q8IDM6, A134C)
T1 construct: expressed in transfected cells; host or cells: purine auxotrophic yeast (ade2Δ, fui1Δ), pCM189 episomal plasmid
Description: (§1) The radiolabeled uptake assay measures the ability of an unlabeled purine or pyrimidine substrate to inhibit the uptake of radiolabeled substrate into yeast via PfENT1 as previously described. Yeast strains containing PfENT1 (mutant or WT) were grown overnight in SDM media to a final OD600 between 0.2 and 0.5. Purine auxotrophic yeast used as a negative control were grown in YPD media. Yeast were spun down and washed three times with 15 mL phosphate buffered saline (PBS; 137 mM NaCl, 2.7 mM KCl, 10 mM KH2PO4, 10 mM Na2HPO4, pH 7.4). The final volume of yeast in PBS varied but it was diluted to a final OD600 = 0.2. […] For the dilution series, unlabeled purine/pyrimidine (Fischer Scientific Cat. #12-565-501) with a starting concentration of 25 mM was serially diluted 1:3 in PBS for a final concentration range of 3.28 nM to 6.25 mM. Yeast were incubated with radioactive substrate and the unlabeled purine/pyrimidine for 15 min. […] This ensured that competition only occurred at the transporter and not at cytoplasmic metabolic enzymes, because those are different for purines and pyrimidines. For determination of minimal and maximal uptake, yeast strains were incubated without radioactivity or with radioactivity but no cold substrate competition, respectively. […] Mats were allowed to air dry and sealed in sample bags with 5 mL of BetaPlate Scint scintillant cocktail (Perkin Elmer Cat. #1205–4401). The amount of radioactivity in each well was measured by liquid scintillation counting using a 1450 MicroBeta TriLux (Perkin Elmer). The counts per minute (cpm) were recorded and technical triplicates were averaged. IC50 values were calculated, and statistical analysis was performed using GraphPad/Prism9 software. Each experiment was repeated at least three times on separate days.
(§2) Statistical significance was calculated using one-way analysis of variance (ANOVA) with GraphPad/Prism9 software. IC50 values were calculated using the non-linear regression dose-response inhibition log(inhibitor) vs normalized response program. Cpm data was background subtracted by the cpm in yeast expressing WT PfENT1 in cold purine/pyrimidine. Data was normalized to the highest value for each mutant.

[2] = molecular target: T2, PfENT1 D287C (Plasmodium falciparum, UniProt Q8IDM6, D287C); conditions: cold uridine vs [3H]adenosine uptake, 15 min
T2 construct: expressed in transfected cells; host or cells: purine auxotrophic Saccharomyces cerevisiae (ade2Δ, fui1Δ), pCM189 episomal plasmid
Description: as §1, §2

[3] = molecular target: T3, PfENT1 F286C (Plasmodium falciparum, UniProt Q8IDM6, F286C)
T3 construct: expressed in transfected cells; host or cells: purine auxotrophic yeast (ade2Δ, fui1Δ), pCM189 episomal plasmid
T3 sequence (Q8IDM6 whole entry F286C): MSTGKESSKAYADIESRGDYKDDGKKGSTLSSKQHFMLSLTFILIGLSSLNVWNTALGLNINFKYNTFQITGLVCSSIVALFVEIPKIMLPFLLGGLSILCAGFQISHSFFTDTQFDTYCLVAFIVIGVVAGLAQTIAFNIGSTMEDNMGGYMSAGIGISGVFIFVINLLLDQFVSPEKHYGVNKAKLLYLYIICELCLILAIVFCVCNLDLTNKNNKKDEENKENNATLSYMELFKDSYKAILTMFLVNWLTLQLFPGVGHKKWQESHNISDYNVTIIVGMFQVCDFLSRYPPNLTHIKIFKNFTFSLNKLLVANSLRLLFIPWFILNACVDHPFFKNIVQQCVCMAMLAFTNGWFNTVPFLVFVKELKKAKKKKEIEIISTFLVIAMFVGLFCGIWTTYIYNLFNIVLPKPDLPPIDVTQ
Description: as §1, §2

[4] = molecular target: T4, PfENT1 F288C (Plasmodium falciparum, UniProt Q8IDM6, F288C)
T4 construct: expressed in transfected cells; host or cells: purine auxotrophic Saccharomyces cerevisiae (ade2Δ, fui1Δ), pCM189 episomal plasmid
T4 sequence (Q8IDM6 whole entry F288C): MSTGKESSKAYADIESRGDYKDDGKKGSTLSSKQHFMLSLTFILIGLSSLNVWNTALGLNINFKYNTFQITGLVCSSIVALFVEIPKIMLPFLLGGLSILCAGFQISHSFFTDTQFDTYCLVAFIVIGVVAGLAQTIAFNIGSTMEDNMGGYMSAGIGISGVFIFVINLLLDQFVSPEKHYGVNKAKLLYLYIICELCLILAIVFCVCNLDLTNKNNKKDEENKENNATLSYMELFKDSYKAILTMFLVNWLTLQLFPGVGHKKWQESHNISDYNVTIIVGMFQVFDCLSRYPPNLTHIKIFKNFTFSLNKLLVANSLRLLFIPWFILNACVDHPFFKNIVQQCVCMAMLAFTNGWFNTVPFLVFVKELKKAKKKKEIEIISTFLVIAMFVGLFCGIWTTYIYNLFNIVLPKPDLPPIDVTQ
Description: as §1, §2

[5] = molecular target: T5, PfENT1 I137C (Plasmodium falciparum, UniProt Q8IDM6, I137C)
T5 construct: expressed in transfected cells; host or cells: purine auxotrophic yeast (ade2Δ, fui1Δ), pCM189 episomal plasmid
T5 sequence (Q8IDM6 whole entry I137C): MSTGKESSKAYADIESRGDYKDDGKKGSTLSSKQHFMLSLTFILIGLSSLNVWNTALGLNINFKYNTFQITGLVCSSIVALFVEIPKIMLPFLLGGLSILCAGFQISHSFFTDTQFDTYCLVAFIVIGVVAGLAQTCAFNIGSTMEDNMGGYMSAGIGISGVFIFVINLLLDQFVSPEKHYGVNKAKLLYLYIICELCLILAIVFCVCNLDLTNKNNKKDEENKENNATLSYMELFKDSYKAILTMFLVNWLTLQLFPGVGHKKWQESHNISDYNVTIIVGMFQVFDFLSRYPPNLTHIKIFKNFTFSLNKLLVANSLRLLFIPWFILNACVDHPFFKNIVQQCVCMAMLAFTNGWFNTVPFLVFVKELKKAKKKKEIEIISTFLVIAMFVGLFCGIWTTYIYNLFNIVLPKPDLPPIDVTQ
Description: as §1, §2

[6] = molecular target: T6, PfENT1 L289C (Plasmodium falciparum, UniProt Q8IDM6, L289C)
T6 construct: expressed in transfected cells; host or cells: purine auxotrophic Saccharomyces cerevisiae (ade2Δ, fui1Δ), pCM189 episomal plasmid
T6 sequence (Q8IDM6 whole entry L289C): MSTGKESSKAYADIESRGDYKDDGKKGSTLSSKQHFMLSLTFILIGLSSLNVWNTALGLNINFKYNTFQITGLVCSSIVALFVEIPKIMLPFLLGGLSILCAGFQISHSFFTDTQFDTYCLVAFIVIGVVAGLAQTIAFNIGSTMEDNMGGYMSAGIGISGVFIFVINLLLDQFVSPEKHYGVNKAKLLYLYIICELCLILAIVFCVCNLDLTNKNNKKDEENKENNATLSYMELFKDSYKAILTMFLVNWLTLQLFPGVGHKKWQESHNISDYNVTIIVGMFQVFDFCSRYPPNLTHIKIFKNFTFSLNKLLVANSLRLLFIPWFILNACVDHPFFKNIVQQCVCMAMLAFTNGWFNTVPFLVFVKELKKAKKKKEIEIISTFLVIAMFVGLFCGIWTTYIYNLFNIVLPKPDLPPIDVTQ
Description: as §1, §2

[7] = molecular target: T7, PfENT1 L50C (Plasmodium falciparum, UniProt Q8IDM6, L50C); conditions: cold uridine vs [3H]adenosine uptake, 15 min
T7 construct: expressed in transfected cells; host or cells: purine auxotrophic yeast (ade2Δ, fui1Δ), pCM189 episomal plasmid
Description: as §1, §2

[8] = molecular target: T8, PfENT1 N51C (Plasmodium falciparum, UniProt Q8IDM6, N51C)
T8 construct: expressed in transfected cells; host or cells: purine auxotrophic yeast (ade2Δ, fui1Δ), pCM189 episomal plasmid
T8 sequence (Q8IDM6 whole entry N51C): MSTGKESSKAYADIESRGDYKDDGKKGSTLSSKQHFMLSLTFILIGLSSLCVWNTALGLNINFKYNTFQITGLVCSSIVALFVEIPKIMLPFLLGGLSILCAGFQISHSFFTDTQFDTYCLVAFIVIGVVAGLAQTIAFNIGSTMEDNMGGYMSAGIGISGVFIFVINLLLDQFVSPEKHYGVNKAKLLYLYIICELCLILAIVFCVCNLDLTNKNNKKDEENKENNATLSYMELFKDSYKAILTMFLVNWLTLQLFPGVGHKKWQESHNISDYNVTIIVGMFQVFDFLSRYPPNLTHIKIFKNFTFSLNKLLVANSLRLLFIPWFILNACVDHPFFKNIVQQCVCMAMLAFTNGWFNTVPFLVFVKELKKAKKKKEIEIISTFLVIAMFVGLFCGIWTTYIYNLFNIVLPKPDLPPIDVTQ
Description: as §1, §2

[9] = molecular target: T9, PfENT1 Q135C (Plasmodium falciparum, UniProt Q8IDM6, Q135C); conditions: cold uridine vs [3H]adenosine uptake, 15 min
T9 construct: expressed in transfected cells; host or cells: purine auxotrophic yeast (ade2Δ, fui1Δ), pCM189 episomal plasmid
T9 sequence (Q8IDM6 whole entry Q135C): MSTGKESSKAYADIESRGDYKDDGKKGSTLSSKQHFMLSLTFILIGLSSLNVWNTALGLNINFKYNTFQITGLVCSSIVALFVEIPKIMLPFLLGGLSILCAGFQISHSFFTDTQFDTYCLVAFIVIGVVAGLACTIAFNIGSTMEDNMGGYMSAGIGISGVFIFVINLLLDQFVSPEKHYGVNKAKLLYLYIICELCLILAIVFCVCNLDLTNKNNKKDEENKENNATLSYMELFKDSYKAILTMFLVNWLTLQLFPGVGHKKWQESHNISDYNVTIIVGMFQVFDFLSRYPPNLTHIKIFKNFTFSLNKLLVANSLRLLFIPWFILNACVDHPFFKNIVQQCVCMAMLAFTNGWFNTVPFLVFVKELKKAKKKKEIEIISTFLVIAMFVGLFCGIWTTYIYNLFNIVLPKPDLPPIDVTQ
Description: as §1, §2

[10] = molecular target: T10, PfENT1 R291C (Plasmodium falciparum, UniProt Q8IDM6, R291C); conditions: cold uridine vs [3H]adenosine uptake, 15 min
T10 construct: expressed in transfected cells; host or cells: purine auxotrophic Saccharomyces cerevisiae (ade2Δ, fui1Δ), pCM189 episomal plasmid
Description: as §1, §2

[11] = molecular target: T11, PfENT1 S290C (Plasmodium falciparum, UniProt Q8IDM6, S290C); conditions: cold uridine vs [3H]adenosine uptake, 15 min
T11 construct: expressed in transfected cells; host or cells: purine auxotrophic Saccharomyces cerevisiae (ade2Δ, fui1Δ), pCM189 episomal plasmid
Description: as §1, §2

[12] = molecular target: T12, PfENT1 S48C (Plasmodium falciparum, UniProt Q8IDM6, S48C)
T12 construct: expressed in transfected cells; host or cells: purine auxotrophic yeast (ade2Δ, fui1Δ), pCM189 episomal plasmid
T12 sequence (Q8IDM6 whole entry S48C): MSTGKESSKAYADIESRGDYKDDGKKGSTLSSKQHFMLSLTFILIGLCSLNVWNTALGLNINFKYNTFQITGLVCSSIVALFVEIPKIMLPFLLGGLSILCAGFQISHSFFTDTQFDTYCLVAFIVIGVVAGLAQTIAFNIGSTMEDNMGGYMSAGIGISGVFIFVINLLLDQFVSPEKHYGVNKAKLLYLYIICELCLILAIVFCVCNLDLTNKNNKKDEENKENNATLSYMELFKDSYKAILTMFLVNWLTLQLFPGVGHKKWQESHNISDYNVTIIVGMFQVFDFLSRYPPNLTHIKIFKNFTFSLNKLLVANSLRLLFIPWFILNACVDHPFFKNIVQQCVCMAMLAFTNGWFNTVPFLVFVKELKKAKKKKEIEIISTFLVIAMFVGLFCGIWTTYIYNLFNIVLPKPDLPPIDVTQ
Description: as §1, §2

[13] = molecular target: T13, PfENT1 S49C (Plasmodium falciparum, UniProt Q8IDM6, S49C)
T13 construct: expressed in transfected cells; host or cells: purine auxotrophic yeast (ade2Δ, fui1Δ), pCM189 episomal plasmid
T13 sequence (Q8IDM6 whole entry S49C): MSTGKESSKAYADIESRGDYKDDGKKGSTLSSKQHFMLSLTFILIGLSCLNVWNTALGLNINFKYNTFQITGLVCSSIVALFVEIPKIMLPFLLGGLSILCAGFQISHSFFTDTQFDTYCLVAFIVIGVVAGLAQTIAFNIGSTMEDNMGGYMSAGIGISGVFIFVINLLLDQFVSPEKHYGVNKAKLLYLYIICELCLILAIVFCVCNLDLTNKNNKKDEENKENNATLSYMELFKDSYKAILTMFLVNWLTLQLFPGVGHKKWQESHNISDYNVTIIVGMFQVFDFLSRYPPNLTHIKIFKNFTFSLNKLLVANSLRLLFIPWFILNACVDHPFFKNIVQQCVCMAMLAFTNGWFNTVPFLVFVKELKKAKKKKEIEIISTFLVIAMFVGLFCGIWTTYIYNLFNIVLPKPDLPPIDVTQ
Description: as §1, §2

[14] = molecular target: T14, PfENT1 T136C (Plasmodium falciparum, UniProt Q8IDM6, T136C)
T14 construct: expressed in transfected cells; host or cells: purine auxotrophic yeast (ade2Δ, fui1Δ), pCM189 episomal plasmid
T14 sequence (Q8IDM6 whole entry T136C): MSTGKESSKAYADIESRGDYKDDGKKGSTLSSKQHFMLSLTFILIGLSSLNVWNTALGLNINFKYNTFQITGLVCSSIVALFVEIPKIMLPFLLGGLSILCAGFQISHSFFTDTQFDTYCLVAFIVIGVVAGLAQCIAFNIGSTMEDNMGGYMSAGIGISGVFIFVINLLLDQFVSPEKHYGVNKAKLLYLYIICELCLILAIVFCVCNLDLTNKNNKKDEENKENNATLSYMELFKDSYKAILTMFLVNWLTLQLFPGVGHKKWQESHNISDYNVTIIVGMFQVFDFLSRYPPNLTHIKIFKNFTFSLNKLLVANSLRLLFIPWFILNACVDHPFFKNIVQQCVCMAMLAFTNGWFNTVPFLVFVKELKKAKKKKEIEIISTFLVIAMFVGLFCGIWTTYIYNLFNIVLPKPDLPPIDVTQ
Description: as §1, §2

[15] = molecular target: T15, PfENT1 V52C (Plasmodium falciparum, UniProt Q8IDM6, V52C)
T15 construct: expressed in transfected cells; host or cells: purine auxotrophic yeast (ade2Δ, fui1Δ), pCM189 episomal plasmid
T15 sequence (Q8IDM6 whole entry V52C): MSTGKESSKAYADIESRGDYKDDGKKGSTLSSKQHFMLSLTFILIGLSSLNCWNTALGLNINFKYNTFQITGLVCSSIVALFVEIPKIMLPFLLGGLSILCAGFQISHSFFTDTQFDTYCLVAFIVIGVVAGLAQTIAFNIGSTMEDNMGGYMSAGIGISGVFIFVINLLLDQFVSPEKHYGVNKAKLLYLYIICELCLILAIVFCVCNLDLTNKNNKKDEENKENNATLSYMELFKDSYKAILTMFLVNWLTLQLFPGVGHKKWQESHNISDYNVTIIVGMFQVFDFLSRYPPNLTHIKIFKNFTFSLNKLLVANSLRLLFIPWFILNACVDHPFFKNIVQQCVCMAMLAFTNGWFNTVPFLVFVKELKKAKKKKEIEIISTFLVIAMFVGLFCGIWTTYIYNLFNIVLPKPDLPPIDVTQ
Description: as §1, §2

[16] = molecular target: T16, PfENT1 W53C (Plasmodium falciparum, UniProt Q8IDM6, W53C); conditions: cold uridine vs [3H]adenosine uptake, 15 min
T16 construct: expressed in transfected cells; host or cells: purine auxotrophic yeast (ade2Δ, fui1Δ), pCM189 episomal plasmid
Description: as §1, §2

[17] = molecular target: T17, WT PfENT1 (Plasmodium falciparum, UniProt Q8IDM6)
T17 construct: expressed in transfected cells; host or cells: purine auxotrophic yeast (ade2Δ, fui1Δ), pCM189 episomal plasmid
Description: as §1, §2

[18] = tested on: purine auxotrophic yeast (ade2Δ, fui1Δ); conditions: ade2Δ strain; cold uridine vs [3H]adenosine uptake, 15 min
Description: as §1, §2

T1 sequence (Q8IDM6 whole entry A134C): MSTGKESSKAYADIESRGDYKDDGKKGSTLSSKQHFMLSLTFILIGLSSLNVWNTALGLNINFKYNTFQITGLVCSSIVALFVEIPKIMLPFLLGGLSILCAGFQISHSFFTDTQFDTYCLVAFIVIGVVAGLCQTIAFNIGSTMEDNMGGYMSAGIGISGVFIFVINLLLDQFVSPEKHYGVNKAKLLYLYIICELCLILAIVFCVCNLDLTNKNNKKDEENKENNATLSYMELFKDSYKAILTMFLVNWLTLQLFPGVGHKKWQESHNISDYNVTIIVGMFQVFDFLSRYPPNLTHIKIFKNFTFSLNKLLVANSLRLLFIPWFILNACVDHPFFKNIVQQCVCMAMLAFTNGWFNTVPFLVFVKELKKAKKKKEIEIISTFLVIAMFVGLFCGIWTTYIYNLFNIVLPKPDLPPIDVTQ

`O=c1ccn([C@@H]2O[C@H](CO)[C@@H](O)[C@H]2O)c(=O)[nH]1` [Uridine, uridine] was tested. Which IC50 [1] did it give?
Its IC50 is 1020 ± 207 µM.

And the “Mutant/WT Ratio Uridine” value ([1]; A134C, ratio of IC50 values)?
Its value is 1.02.

What about the “Average IC50 (μM) Uridine” value [2] of the same compound?
Its value is “no uptake”.

And the IC50 [3]?
The IC50 was 1210 ± 139 µM.

And the “Mutant/WT Ratio Uridine” value ([3]; F286C, ratio of IC50 values)?
Its value is 1.21.

What about the IC50 [4] of the same compound?
The IC50 was 850 ± 138 µM.

And the “Mutant/WT Ratio Uridine” value ([4]; F288C, ratio of IC50 values)?
Its value is 0.85.

What about the IC50 [5] of the same compound?
Its IC50 is 904 ± 21 µM.

What about the “Mutant/WT Ratio Uridine” value ([5]; I137C, ratio of IC50 values) of the same compound?
Its value is 0.91.

And the IC50 [6]?
Its IC50 is 905 ± 164 µM.

And the “Mutant/WT Ratio Uridine” value ([6]; L289C, ratio of IC50 values)?
Its value is 0.91.

And the “Average IC50 (μM) Uridine” value [7]?
Its value is “no uptake”.

What about the IC50 [8] of the same compound?
The IC50 was 30.9 ± 1 µM.

And the “Mutant/WT Ratio Uridine” value ([8]; N51C, ratio of IC50 values)?
The value was 0.031.

And the “Average IC50 (μM) Uridine” value [9]?
The value was “no uptake”.

What about the “Average IC50 (μM) Uridine” value [10] of the same compound?
Its value is “no uptake”.

And the “Average IC50 (μM) Uridine” value [11]?
The value was “no uptake”.

What about the IC50 [12] of the same compound?
Its IC50 is 801 ± 46 µM.

And the “Mutant/WT Ratio Uridine” value ([12]; S48C, ratio of IC50 values)?
Its value is 0.8.

What about the IC50 [13] of the same compound?
Its IC50 is 1060 ± 30 µM.

What about the “Mutant/WT Ratio Uridine” value ([13]; S49C, ratio of IC50 values) of the same compound?
Its value is 1.06.

And the IC50 [14]?
Its IC50 is 786 ± 87 µM.

And the “Mutant/WT Ratio Uridine” value ([14]; T136C, ratio of IC50 values)?
Its value is 0.79.

What about the IC50 [15] of the same compound?
The IC50 was 2820 ± 1440 µM.

And the “Mutant/WT Ratio Uridine” value ([15]; V52C, ratio of IC50 values)?
Its value is 2.83.

And the “Average IC50 (μM) Uridine” value [16]?
Its value is “no uptake”.

What about the IC50 [17] of the same compound?
Its IC50 is 997 ± 90 µM.

And the “Average IC50 (μM) Uridine” value [18]?
The value was “no uptake”.
